# Experimental data: ChEMBL document CHEMBL5352419, “Design, synthesis, and biological evaluation of tetrahydroquinoline amphiphiles as membrane-targeting antimicrobials against pathogenic bacteria and fungi” (Eur J Med Chem, 2022)
# Assays:
# [1] = test system: Escherichia coli; assay: Antimicrobial activity against Escherichia coli ATCC25922 assessed as bacterial growth inhibition incubated for 24 hrs by Muller Hinton broth based dilution assay; type: functional
# [2] = test system: Staphylococcus aureus; assay: Antimicrobial activity against methicillin-resistant Staphylococcus aureus NCTC10442 assessed as bacterial growth inhibition incubated for 24 hrs by Muller Hinton broth based dilution assay; type: functional
# [3] = test system: Staphylococcus aureus; assay: Antimicrobial activity against methicillin-resistant Staphylococcus aureus N315 assessed as bacterial growth inhibition incubated for 24 hrs by Muller Hinton broth based dilution assay; type: functional
# [4] = test system: Candida albicans; assay: Antimicrobial activity against Candida albicans CMCC98001 assessed as fungal growth inhibition incubated for 48 hrs by Sabouraud Dextrose broth based dilution assay; type: functional
# [5] = test system: Candida albicans; assay: Antimicrobial activity against Candida albicans ATCC10231 assessed as fungal growth inhibition incubated for 48 hrs by Sabouraud Dextrose broth based dilution assay; type: functional
# [6] = test system: Staphylococcus aureus; assay: Antimicrobial activity against Staphylococcus aureus ATCC29213 assessed as bacterial growth inhibition incubated for 24 hrs by Muller Hinton broth based dilution assay; type: functional
# [7] = Hemolytic activity in rabbit RBC incubated for 1 hr by absorbance based microplate reader assay; type: toxicity, cell-based, Oryctolagus cuniculus, Erythrocyte; settings: rabbit red blood cells (erythrocytes)
Structure (SMILES),MIC [1],MIC [2],MIC [3],MIC [4],MIC [5],MIC [6],HC50 at 1 h [7]
CCCCCCCN1CCCc2cc(OCC(=O)OCC)ccc21,> 50 µg/mL,> 50 µg/mL,> 50 µg/mL,> 50 µg/mL,> 50 µg/mL,> 50 µg/mL,> 200 µg/mL
CC(C)=CCN1CCCc2cc(OCCCCNC(=N)N)ccc21,25 µg/mL,3.12 µg/mL,1.56 µg/mL,> 50 µg/mL,> 50 µg/mL,3.12 µg/mL,> 200 µg/mL
CCCCCCCN1CCCc2cc(O)ccc21,> 50 µg/mL,12.5 µg/mL,12.5 µg/mL,> 50 µg/mL,> 50 µg/mL,12.5 µg/mL,> 200 µg/mL
CC(C)=CCN1CCCc2cc(OCCCCN3CCCCC3)ccc21,> 50 µg/mL,> 50 µg/mL,> 50 µg/mL,> 50 µg/mL,> 50 µg/mL,> 50 µg/mL,> 200 µg/mL
CC(C)=CCN1CCCc2cc(OCCCCCCCCBr)ccc21,> 50 µg/mL,> 50 µg/mL,> 50 µg/mL,50 µg/mL,50 µg/mL,> 50 µg/mL,> 200 µg/mL
N=C(N)NCCCCOc1ccc2c(c1)CCCN2CCCC(F)(F)F,25 µg/mL,6.25 µg/mL,6.25 µg/mL,> 50 µg/mL,> 50 µg/mL,6.25 µg/mL,> 200 µg/mL
CCCCCCCN1CCCc2cc(OCCCCBr)ccc21,25 µg/mL,6.25 µg/mL,6.25 µg/mL,12.5 µg/mL,25 µg/mL,12.5 µg/mL,> 200 µg/mL
CCCN1CCCc2cc(O)ccc21,> 50 µg/mL,> 50 µg/mL,> 50 µg/mL,> 50 µg/mL,> 50 µg/mL,> 50 µg/mL,> 200 µg/mL
Oc1ccc2c(c1)CCCN2CCCC(F)(F)F,> 50 µg/mL,> 50 µg/mL,> 50 µg/mL,> 50 µg/mL,> 50 µg/mL,> 50 µg/mL,> 200 µg/mL
CC(C)=CCN1CCCc2cc(O)ccc21,> 50 µg/mL,50 µg/mL,50 µg/mL,> 50 µg/mL,> 50 µg/mL,50 µg/mL,> 200 µg/mL
C[C@@H]1C/C=C/C=C/C=C/C=C/[C@H](O[C@@H]2O[C@H](C)[C@@H](O)[C@H](N)[C@@H]2O)C[C@@H]2O[C@](O)(C[C@@H](O)C[C@H]3O[C@@H]3/C=C/C(=O)O1)C[C@H](O)[C@H]2C(=O)O [NATAMYCIN],–,–,–,6.25 µg/mL,6.25 µg/mL,–,–
CC(C)=CCN1CCCc2cc(OCCCNC(=N)N)ccc21,50 µg/mL,6.25 µg/mL,6.25 µg/mL,> 50 µg/mL,> 50 µg/mL,6.25 µg/mL,> 200 µg/mL
CC(C)=CCC/C(C)=C/CN1CCCc2cc(OCCCCBr)ccc21,> 50 µg/mL,25 µg/mL,25 µg/mL,50 µg/mL,> 50 µg/mL,25 µg/mL,> 200 µg/mL
CCCCCCCCCN1CCCc2cc(OCC(=O)OCC)ccc21,> 50 µg/mL,> 50 µg/mL,> 50 µg/mL,> 50 µg/mL,> 50 µg/mL,> 50 µg/mL,> 200 µg/mL
CC(C)=CCN1CCCc2cc(OCCCCCCCCCCBr)ccc21,25 µg/mL,3.12 µg/mL,3.12 µg/mL,12.5 µg/mL,12.5 µg/mL,3.12 µg/mL,> 200 µg/mL
CCCCCCCN1CCCc2cc(OCC(=O)N[C@@H](CCCNC(=N)N)C(=O)N[C@@H](CCCNC(=N)N)C(=O)OC)ccc21,50 µg/mL,3.12 µg/mL,3.12 µg/mL,50 µg/mL,> 50 µg/mL,6.25 µg/mL,> 200 µg/mL
CCCCCCCCCN1CCCc2cc(OCCCCCCCCBr)ccc21,> 50 µg/mL,50 µg/mL,25 µg/mL,> 50 µg/mL,> 50 µg/mL,25 µg/mL,> 200 µg/mL
CC(C)=CCN1CCCc2cc(OCCCCN3CCSCC3)ccc21,> 50 µg/mL,> 50 µg/mL,> 50 µg/mL,> 50 µg/mL,> 50 µg/mL,> 50 µg/mL,> 200 µg/mL
CCCCCCCCCN1CCCc2cc(OCCCCCCCCNC(=N)N)ccc21,25 µg/mL,3.12 µg/mL,3.12 µg/mL,1.56 µg/mL,0.78 µg/mL,3.12 µg/mL,> 200 µg/mL
CC(C)=CCC/C(C)=C/CN1CCCc2cc(O)ccc21,> 50 µg/mL,12.5 µg/mL,12.5 µg/mL,25 µg/mL,50 µg/mL,12.5 µg/mL,> 200 µg/mL
CCCN1CCCc2cc(OCCCCNC(=N)N)ccc21,> 50 µg/mL,12.5 µg/mL,6.25 µg/mL,> 50 µg/mL,> 50 µg/mL,12.5 µg/mL,> 200 µg/mL

Structure (SMILES),MIC [1],MIC [2],MIC [3],MIC [4],MIC [5],MIC [6],HC50 at 1 h [7]
CCCCCN1CCCc2cc(O)ccc21,> 50 µg/mL,25 µg/mL,25 µg/mL,> 50 µg/mL,> 50 µg/mL,50 µg/mL,> 200 µg/mL
CC(C)=CCN1CCCc2cc(OCCCCN(C)C)ccc21,25 µg/mL,25 µg/mL,25 µg/mL,> 50 µg/mL,> 50 µg/mL,25 µg/mL,> 200 µg/mL
Oc1ccc2c(c1)CCCN2,> 50 µg/mL,> 50 µg/mL,> 50 µg/mL,> 50 µg/mL,> 50 µg/mL,> 50 µg/mL,> 200 µg/mL
CCCCCCCCCN1CCCc2cc(O)ccc21,> 50 µg/mL,12.5 µg/mL,12.5 µg/mL,50 µg/mL,50 µg/mL,12.5 µg/mL,> 200 µg/mL
CC(C)=CCN1CCCc2cc(OCCCCBr)ccc21,> 50 µg/mL,25 µg/mL,12.5 µg/mL,> 50 µg/mL,> 50 µg/mL,25 µg/mL,> 200 µg/mL
CC(C)=CCN1CCCc2cc(OCCCCN3CCCC3)ccc21,> 50 µg/mL,> 50 µg/mL,> 50 µg/mL,> 50 µg/mL,> 50 µg/mL,> 50 µg/mL,> 200 µg/mL
CC(C)=CCC/C(C)=C/CN1CCCc2cc(OCCCCCCCCNC(=N)N)ccc21,25 µg/mL,1.56 µg/mL,3.12 µg/mL,0.78 µg/mL,0.78 µg/mL,3.12 µg/mL,> 200 µg/mL
CCCCCN1CCCc2cc(OCCCCBr)ccc21,> 50 µg/mL,25 µg/mL,25 µg/mL,50 µg/mL,50 µg/mL,25 µg/mL,> 200 µg/mL
CCCCN1CCCc2cc(OCCCCBr)ccc21,50 µg/mL,6.25 µg/mL,6.25 µg/mL,50 µg/mL,> 50 µg/mL,12.5 µg/mL,> 200 µg/mL
CCCCCN1CCCc2cc(OCC(=O)N[C@@H](CCCNC(=N)N)C(=O)OC)ccc21,> 50 µg/mL,25 µg/mL,25 µg/mL,> 50 µg/mL,> 50 µg/mL,50 µg/mL,> 200 µg/mL
CCN(CC)CCCCOc1ccc2c(c1)CCCN2CC=C(C)C,> 50 µg/mL,> 50 µg/mL,> 50 µg/mL,> 50 µg/mL,> 50 µg/mL,> 50 µg/mL,> 200 µg/mL
CC(C)=CCN1CCCc2cc(OCCCCCCBr)ccc21,> 50 µg/mL,25 µg/mL,25 µg/mL,50 µg/mL,50 µg/mL,50 µg/mL,> 200 µg/mL
CC(C)=CCN1CCCc2cc(OCCCBr)ccc21,> 50 µg/mL,25 µg/mL,25 µg/mL,50 µg/mL,50 µg/mL,25 µg/mL,> 200 µg/mL
CCCCCNCCCCOc1ccc2c(c1)CCCN2CC=C(C)C,50 µg/mL,6.25 µg/mL,6.25 µg/mL,> 50 µg/mL,> 50 µg/mL,6.25 µg/mL,146 µg/mL
CCCCCCCCCN1CCCc2cc(OCCCCBr)ccc21,25 µg/mL,12.5 µg/mL,12.5 µg/mL,50 µg/mL,50 µg/mL,6.25 µg/mL,> 200 µg/mL
CC(C)=CCC/C(C)=C/CN1CCCc2cc(OCCCCCCCCBr)ccc21,25 µg/mL,6.25 µg/mL,6.25 µg/mL,12.5 µg/mL,12.5 µg/mL,6.25 µg/mL,> 200 µg/mL
CCCCCCCN1CCCc2cc(OCCCCCCCCBr)ccc21,> 50 µg/mL,> 50 µg/mL,> 50 µg/mL,> 50 µg/mL,> 50 µg/mL,> 50 µg/mL,> 200 µg/mL
CCCCCN1CCCc2cc(OCC(=O)OCC)ccc21,> 50 µg/mL,> 50 µg/mL,> 50 µg/mL,> 50 µg/mL,> 50 µg/mL,> 50 µg/mL,> 200 µg/mL
CC(C)=CCN1CCCc2cc(OCCCCNCCN(CCN)CCN)ccc21,50 µg/mL,6.25 µg/mL,6.25 µg/mL,50 µg/mL,> 50 µg/mL,12.5 µg/mL,> 200 µg/mL
CNCCCCOc1ccc2c(c1)CCCN2CC=C(C)C,25 µg/mL,12.5 µg/mL,6.25 µg/mL,50 µg/mL,50 µg/mL,25 µg/mL,> 200 µg/mL
CC(C)=CCN1CCCc2cc(OCCCCCCCCCCCCBr)ccc21,> 50 µg/mL,> 50 µg/mL,> 50 µg/mL,> 50 µg/mL,> 50 µg/mL,> 50 µg/mL,> 200 µg/mL
